Reference: PubChem BioAssay AID2060912 (Molecular Pharmacology Branch, DTP, NCI, 2025)

Test system: HUVEC/MSC spheroids viability
Assay: Human HUVEC/MSC cell line growth inhibition [KRAS2];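 as to viability, T/C: percent of DMSO vehicle control luminescence so 100% = untreated viability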
Settings: for IC50: curve of first compound; for viability, T/C: stronger effect = lower value
How it was run: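 Spheroids of human HUVEC plus MSCs, without tumor cells, were treated with single agents and combinations. Each drug was tested in half-log steps down from near its clinical Cmax, or from 10 microM when Cmax was unknown. HUVEC and hMSC were used at passage </=5.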

[1] = second compound 0.00949 µM, first compound 0.0316 µM
[2] = second compound 0.00949 µM, first compound 0.1 µM
[3] = second compound 0.00949 µM, first compound 0.316 µM
[4] = second compound 0.00949 µM, first compound 1 µM
[5] = second compound 0.00949 µM, first compound 3.16 µM
[6] = second compound 0.00949 µM, first compound 10 µM
[7] = second compound 0.03 µM, first compound 0.0316 µM
[8] = second compound 0.03 µM, first compound 0.1 µM
[9] = second compound 0.03 µM, first compound 0.316 µM
[10] = second compound 0.03 µM, first compound 1 µM
[11] = second compound 0.03 µM, first compound 3.16 µM
[12] = second compound 0.03 µM, first compound 10 µM
[13] = second compound 0.0949 µM, first compound 0.0316 µM
[14] = second compound 0.0949 µM, first compound 0.1 µM
[15] = second compound 0.0949 µM, first compound 0.316 µM
[16] = second compound 0.0949 µM, first compound 1 µM
[17] = second compound 0.0949 µM, first compound 3.16 µM
[18] = second compound 0.0949 µM, first compound 10 µM
[19] = second compound 0.3 µM, first compound 0.0316 µM
[20] = second compound 0.3 µM, first compound 0.1 µM
[21] = second compound 0.3 µM, first compound 0.316 µM
[22] = second compound 0.3 µM, first compound 1 µM
[23] = second compound 0.3 µM, first compound 3.16 µM
[24] = second compound 0.3 µM, first compound 10 µM
[25] = second compound 0.949 µM, first compound 0.0316 µM
[26] = second compound 0.949 µM, first compound 0.1 µM
[27] = second compound 0.949 µM, first compound 0.316 µM
[28] = second compound 0.949 µM, first compound 1 µM
[29] = second compound 0.949 µM, first compound 3.16 µM
[30] = second compound 0.949 µM, first compound 10 µM
[31] = second compound 3 µM, first compound 0.0316 µM
[32] = second compound 3 µM, first compound 0.1 µM
[33] = second compound 3 µM, first compound 0.316 µM
[34] = second compound 3 µM, first compound 1 µM
[35] = second compound 3 µM, first compound 3.16 µM
[36] = second compound 3 µM, first compound 10 µM

## CC1COCCN1c1cc(-c2ccnn2C)c2ccnc(-c3ccn[nH]3)c2n1 (stereo not drawn) + C=CC(=O)N1CCN(c2nc(OCC3CCCN3C)nc3c2CCN(c2cccc4cccc(C)c24)C3)CC1CC#N
Second compound 0.00949 µM
  IC50: 1.21 µM
Second compound 0.03 µM
  IC50: 0.916 µM
Second compound 0.0949 µM
  IC50: 0.635 µM
Second compound 0.3 µM
  IC50: 0.661 µM
Second compound 0.949 µM
  IC50: 0.362 µM
Second compound 3 µM
  IC50: > 3 µM
Second compound 0.00949 µM, first compound 0.00949 µM
  viability, T/C: 79.3%
Second compound 0.00949 µM, first compound 0.03 µM
  viability, T/C: 76.5%
Second compound 0.00949 µM, first compound 0.0949 µM
  viability, T/C: 77%
Second compound 0.00949 µM, first compound 0.3 µM
  viability, T/C: 77%
Second compound 0.00949 µM, first compound 0.949 µM
  viability, T/C: 51.9%
Second compound 0.00949 µM, first compound 3 µM
  viability, T/C: 42.8%
Second compound 0.03 µM, first compound 0.00949 µM
  viability, T/C: 87.7%
Second compound 0.03 µM, first compound 0.03 µM
  viability, T/C: 90.9%
Second compound 0.03 µM, first compound 0.0949 µM
  viability, T/C: 77.6%
Second compound 0.03 µM, first compound 0.3 µM
  viability, T/C: 66.6%
Second compound 0.03 µM, first compound 0.949 µM
  viability, T/C: 49.7%
Second compound 0.03 µM, first compound 3 µM
  viability, T/C: 37.9%
Second compound 0.0949 µM, first compound 0.00949 µM
  viability, T/C: 73.5%
Second compound 0.0949 µM, first compound 0.03 µM
  viability, T/C: 85.3%
Second compound 0.0949 µM, first compound 0.0949 µM
  viability, T/C: 70.8%
Second compound 0.0949 µM, first compound 0.3 µM
  viability, T/C: 69.1%
Second compound 0.0949 µM, first compound 0.949 µM
  viability, T/C: 39.5%
Second compound 0.0949 µM, first compound 3 µM
  viability, T/C: 37.8%
Second compound 0.3 µM, first compound 0.00949 µM
  viability, T/C: 66.8%
Second compound 0.3 µM, first compound 0.03 µM
  viability, T/C: 71.4%
Second compound 0.3 µM, first compound 0.0949 µM
  viability, T/C: 72%
Second compound 0.3 µM, first compound 0.3 µM
  viability, T/C: 62.6%
Second compound 0.3 µM, first compound 0.949 µM
  viability, T/C: 44.2%
Second compound 0.3 µM, first compound 3 µM
  viability, T/C: 34.8%
Second compound 0.949 µM, first compound 0.00949 µM
  viability, T/C: 67.7%
Second compound 0.949 µM, first compound 0.03 µM
  viability, T/C: 65%
Second compound 0.949 µM, first compound 0.0949 µM
  viability, T/C: 68%
Second compound 0.949 µM, first compound 0.3 µM
  viability, T/C: 51.5%
Second compound 0.949 µM, first compound 0.949 µM
  viability, T/C: 45%
Second compound 0.949 µM, first compound 3 µM
  viability, T/C: 40.1%
Second compound 3 µM, first compound 0.00949 µM
  viability, T/C: 81.6%
Second compound 3 µM, first compound 0.03 µM
  viability, T/C: 78.6%
Second compound 3 µM, first compound 0.0949 µM
  viability, T/C: 86%
Second compound 3 µM, first compound 0.3 µM
  viability, T/C: 81.2%
Second compound 3 µM, first compound 0.949 µM
  viability, T/C: 54.5%
Second compound 3 µM, first compound 3 µM
  viability, T/C: 50.4%

## CC1OCC2(CCN(c3cnc(Sc4ccnc(N)c4Cl)c(N)n3)CC2)C1N (stereo not drawn) + C=CC(=O)N1CCN(c2nc(OCC3CCCN3C)nc3c2CCN(c2cccc4cccc(C)c24)C3)CC1CC#N
Second compound 0.00949 µM
  IC50: > 10 µM
Second compound 0.03 µM
  IC50: > 10 µM
Second compound 0.0949 µM
  IC50: > 10 µM
Second compound 0.3 µM
  IC50: > 10 µM
Second compound 0.949 µM
  IC50: 5.36 µM
Second compound 3 µM
  IC50: 0.387 µM
[1]
  viability, T/C: 112%
[2]
  viability, T/C: 102%
[3]
  viability, T/C: 99.9%
[4]
  viability, T/C: 82.3%
[5]
  viability, T/C: 71.1%
[6]
  viability, T/C: 73.6%
[7]
  viability, T/C: 109%
[8]
  viability, T/C: 116%
[9]
  viability, T/C: 89.8%
[10]
  viability, T/C: 87.3%
[11]
  viability, T/C: 66%
[12]
  viability, T/C: 67.9%
[13]
  viability, T/C: 98.5%
[14]
  viability, T/C: 96.4%
[15]
  viability, T/C: 90%
[16]
  viability, T/C: 79.5%
[17]
  viability, T/C: 74.1%
[18]
  viability, T/C: 66.5%
[19]
  viability, T/C: 86.7%
[20]
  viability, T/C: 90.7%
[21]
  viability, T/C: 89.4%
[22]
  viability, T/C: 69.1%
[23]
  viability, T/C: 72.9%
[24]
  viability, T/C: 56.1%
[25]
  viability, T/C: 63%
[26]
  viability, T/C: 79.5%
[27]
  viability, T/C: 83.2%
[28]
  viability, T/C: 71.8%
[29]
  viability, T/C: 60.4%
[30]
  viability, T/C: 37.9%
[31]
  viability, T/C: 55.4%
[32]
  viability, T/C: 67.6%
[33]
  viability, T/C: 48%
[34]
  viability, T/C: 35.7%
[35]
  viability, T/C: 4.99%
[36]
  viability, T/C: 0.43%

## CCNC(=O)CC1N=C(c2ccc(Cl)cc2)c2cc(OC)ccc2-n2c(C)nnc21 (stereo not drawn) + C=CC(=O)N1CCN(c2nc(OCC3CCCN3C)nc3c2CCN(c2cccc4cccc(C)c24)C3)CC1CC#N
Second compound 0.00949 µM
  IC50: > 10 µM
Second compound 0.03 µM
  IC50: > 10 µM
Second compound 0.0949 µM
  IC50: > 10 µM
Second compound 0.3 µM
  IC50: > 10 µM
Second compound 0.949 µM
  IC50: > 10 µM
Second compound 3 µM
  IC50: > 10 µM
[1]
  viability, T/C: 68.5%
[2]
  viability, T/C: 79.5%
[3]
  viability, T/C: 69.5%
[4]
  viability, T/C: 115%
[5]
  viability, T/C: 100%
[6]
  viability, T/C: 90.3%
[7]
  viability, T/C: 82.6%
[8]
  viability, T/C: 76.9%
[9]
  viability, T/C: 79.1%
[10]
  viability, T/C: 108%
[11]
  viability, T/C: 119%
[12]
  viability, T/C: 110%
[13]
  viability, T/C: 73.3%
[14]
  viability, T/C: 63.3%
[15]
  viability, T/C: 78.8%
[16]
  viability, T/C: 115%
[17]
  viability, T/C: 97.8%
[18]
  viability, T/C: 111%
[19]
  viability, T/C: 72.8%
[20]
  viability, T/C: 64.3%
[21]
  viability, T/C: 60.5%
[22]
  viability, T/C: 102%
[23]
  viability, T/C: 91.9%
[24]
  viability, T/C: 104%
[25]
  viability, T/C: 53.3%
[26]
  viability, T/C: 63.1%
[27]
  viability, T/C: 82.7%
[28]
  viability, T/C: 74%
[29]
  viability, T/C: 83.7%
[30]
  viability, T/C: 86.1%
[31]
  viability, T/C: 75.5%
[32]
  viability, T/C: 89.9%
[33]
  viability, T/C: 82.7%
[34]
  viability, T/C: 67.1%
[35]
  viability, T/C: 71.2%
[36]
  viability, T/C: 54.3%

## Cn1nccc1Nc1nccc(-c2cc3c(s2)C(C)(C)N(CCN2CCOCC2)C3=O)n1 + C=CC(=O)N1CCN(c2nc(OCC3CCCN3C)nc3c2CCN(c2cccc4cccc(C)c24)C3)CC1CC#N
Second compound 0.00949 µM
  IC50: 2.88 µM
Second compound 0.03 µM
  IC50: 3.05 µM
Second compound 0.0949 µM
  IC50: 2.89 µM
Second compound 0.3 µM
  IC50: 3.02 µM
Second compound 0.949 µM
  IC50: 2.42 µM
Second compound 3 µM
  IC50: 1.13 µM
[1]
  viability, T/C: 81.1%
[2]
  viability, T/C: 103%
[3]
  viability, T/C: 124%
[4]
  viability, T/C: 109%
[5]
  viability, T/C: 45.1%
[6]
  viability, T/C: 6.48%
[7]
  viability, T/C: 85.3%
[8]
  viability, T/C: 103%
[9]
  viability, T/C: 111%
[10]
  viability, T/C: 96.2%
[11]
  viability, T/C: 48.6%
[12]
  viability, T/C: 5.51%
[13]
  viability, T/C: 93.1%
[14]
  viability, T/C: 119%
[15]
  viability, T/C: 106%
[16]
  viability, T/C: 86.1%
[17]
  viability, T/C: 47.6%
[18]
  viability, T/C: 9.65%
[19]
  viability, T/C: 77.7%
[20]
  viability, T/C: 85.8%
[21]
  viability, T/C: 99.6%
[22]
  viability, T/C: 91%
[23]
  viability, T/C: 48.5%
[24]
  viability, T/C: 3.83%
[25]
  viability, T/C: 76.7%
[26]
  viability, T/C: 91.2%
[27]
  viability, T/C: 93.9%
[28]
  viability, T/C: 92.1%
[29]
  viability, T/C: 38.4%
[30]
  viability, T/C: 1.39%
[31]
  viability, T/C: 90.6%
[32]
  viability, T/C: 107%
[33]
  viability, T/C: 93.8%
[34]
  viability, T/C: 55.7%
[35]
  viability, T/C: 2.04%
[36]
  viability, T/C: 0.32%
